Laboratory results reported in US20250134889A1, “TARGETING IRE1 KINASE AND FMRP FOR PROPHYLAXIS, MANAGEMENT AND TREATMENT OF ATHEROSCLEROSIS” (CEDARS-SINAI MEDICAL CENTER, priority 2022, published 2025).

Legend:
[1] = system: mouse and human macrophages; conditions: cited from earlier work
[2] = system: atherosclerotic plaque; conditions: mice; cited from earlier work
[3] = system: RAW 264.7 mouse macrophages; assay: ER stressor treatment of RAW 264.7 macrophages (western blot, qRT-PCR); format: cell-based; conditions: oxLDL 50 μg/ml or TG 300 nM, 6 hours
Description: FIGS. 1A-1K depict FMRP is a new inositol-requiring enzyme-1 (IRE1) kinase substrate. A representative blot is shown from at least n=3 independent experiments. Data are mean±SEM. Unpaired 1-test with Welch's correction or paired 1-test. * P≤0.05, ** P≤0.01, *** P≤0.001. • 1A. STING analysis of published IRE1 interactome proteins in relation to FMRP (Acosta-Alvear et al., 2018). • 1B. HEK293T cells were co-transfected with IRE1 and FMRP plasmids and stimulated with TG (600 nM) or TM (1 mg/ml) for 2 hours. Protein lysates were immunoprecipitated (IP) with anti-IRE1 or IgG (control) antibodies and analyzed by Western blotting using specific antibodies for FMRP and IRE1 (n=3). • 1C. RAW 264.7 mouse macrophages were treated with either oxLDL (50 μg/ml) or TG (300 nM) for 6 hours. Protein lysates were treated with λ Phosphatase (PPase) for 30 minutes and analyzed by western blotting using specific antibodies for pFMRP, FMRP, pIRE1, IRE1 and β-Actin. pFMRP/FMRP fold induction is depicted above the blots (n=6). • 1D. Apoe^−/− mice were fed with chow diet (CD) or western diet (WD) for 16 weeks followed by peritoneal macrophage (PM) isolation. Protein lysates were analyzed by western blotting using specific antibodies for pFMRP, FMRP, pIRE1, IRE1 and β-Actin. pFMRP/FMRP-fold induction is depicted above the blots (n=5). • 1E. Control- or IRE1-siRNA transfected HEK293T cells were stimulated by either PA (500 μM) or TG (600 nM) for 4 hours. Protein lysates were analyzed by western blotting using specific antibodies for pFMRP, FMRP, pIRE1, IRE1 and β-Actin. pFMRP/FMRP fold induction is depicted above the blots (n=4). • 1F. Protein lysates of thioglycolate-elicited PM from IRE1α^−/− and IRE1α^−/− mice (after 16 weeks on WD) were analyzed by western blotting using specific antibodies for pFMRP, FMRP, pIRE1, IRE1 and β-Actin. pFMRP/FMRP fold induction is depicted above the blots (n=4). • 1G. […] Protein lysates were analyzed by western blotting using specific antibodies for pFMRP, FMRP, pIRE1, IRE1 and β-Actin. pFMRP/FMRP fold induction is depicted above the blots (n=4). • 1H. […] Protein lysates of thioglycolate-elicited PM were analyzed by western blotting using antibodies for pFMRP, FMRP, pIRE1, IRE1 and β-Actin. pFMRP/FMRP fold induction is depicted above the blots (n=4). • 1I. […] The IP protein were analyzed by western blotting using specific antibodies for thiophosphate esters (ThioP), IRE1 and FMRP (n=3). • 1J. Purified FMRP and IRE1 kinase (activated) proteins were subjected to kinase assay and analyzed by western blotting using specific antibodies for ThioP, IRE1 and FMRP (n=3) and with LC-MS/MS. […] Protein lysates were analyzed by western blotting using specific antibodies for FMRP, pFMRP, pIRE1 and β-Actin. pFMRP/FMRP fold induction is depicted above the blots (n=3). […]

[4] = system: HEK293T cells; assay: ER stress-induced phosphorylation in control- or IRE1-siRNA transfected HEK293T cells (western blot); format: cell-based, human; conditions: PA 500 μM or TG 600 nM, 4 hours, control cells
Description: FIGS. 1A-1K depict FMRP is a new inositol-requiring enzyme-1 (IRE1) kinase substrate. A representative blot is shown from at least n=3 independent experiments. Data are mean±SEM. Unpaired 1-test with Welch's correction or paired 1-test. * P≤0.05, ** P≤0.01, *** P≤0.001. • 1A. STING analysis of published IRE1 interactome proteins in relation to FMRP (Acosta-Alvear et al., 2018). • 1B. HEK293T cells were co-transfected with IRE1 and FMRP plasmids and stimulated with TG (600 nM) or TM (1 mg/ml) for 2 hours. Protein lysates were immunoprecipitated (IP) with anti-IRE1 or IgG (control) antibodies and analyzed by Western blotting using specific antibodies for FMRP and IRE1 (n=3). • 1C. RAW 264.7 mouse macrophages were treated with either oxLDL (50 μg/ml) or TG (300 nM) for 6 hours. Protein lysates were treated with λ Phosphatase (PPase) for 30 minutes and analyzed by western blotting using specific antibodies for pFMRP, FMRP, pIRE1, IRE1 and β-Actin. pFMRP/FMRP fold induction is depicted above the blots (n=6). • 1D. […] Protein lysates were analyzed by western blotting using specific antibodies for pFMRP, FMRP, pIRE1, IRE1 and β-Actin. pFMRP/FMRP-fold induction is depicted above the blots (n=5). • 1E. […] Protein lysates were analyzed by western blotting using specific antibodies for pFMRP, FMRP, pIRE1, IRE1 and β-Actin. pFMRP/FMRP fold induction is depicted above the blots (n=4). • 1F. […]

Structure (SMILES)	lipid-induced inflammasome activation [1]	secretion of mature interleukin-1β (m-IL-1β) and m-IL-18 [1]	atherosclerotic plaque size [2]	hyperlipidemia-induced m-IL-1β and m-IL-18 production [2]	FMRP phosphorylation (S500) [3]	IRE1 autophosphorylation (S724) [3]	levels of FMRP protein [3]	levels of Fmr1 mRNA [3]	phosphorylation of FMRP [4]	phosphorylation of IRE1 [4]
Cc1cc(=O)oc2c(C=O)c(O)ccc12 [4μ8C]	prevented	prevented	reducing	reducing						
O=S(=O)(N=Cc1c(O)ccc2ccccc12)c1cccs1 [STF-083010]	prevented	prevented	reducing	reducing						
C/C=C(/C)C(=O)O[C@H]1C(C)=C2[C@H]([C@@H]1OC(=O)CCCCCCC)[C@@](C)(OC(C)=O)C[C@H](OC(=O)CCC)[C@@]1(O)[C@H]2OC(=O)[C@@]1(C)O [TG, thapsigargin]					significantly induced	significantly induced	did not affect	did not affect	induced	induced
